Source: US8143301B2, “Hepatitis C virus inhibitors” (Bristol Myers Squibb Company, priority 2009, dated 2012)
pEC50: −log10 of the molar value. Like-named read-outs stand apart in the source and are kept apart here.

System: HCV 1b genotype
Assay: HCV Replicon assay, 1b genotype
Type: cell-based
Details: Hepatitis C virus, HCV 1b genotype replicon
Experimental: An HCV Replicon assay was utilized in the present disclosure, and was prepared, conducted and validated as described in commonly owned PCT/US2006/022197 and in O'Boyle et. al. Antimicrob Agents Chemother. 2005 April; 49(4):1346-53. Assay methods incorporating luciferase reporters have also been used as described (Apath.com).
HCV-neo replicon cells and replicon cells containing mutations in the NS5A region were used to test the currently described family of compounds. The compounds were determined to have more than 10-fold less inhibitory activity on cells containing mutations than wild-type cells. Thus, the compounds of the present disclosure can be effective in inhibiting the function of the HCV NS5A protein and are understood to be as effective in combinations as previously described in application PCT/US2006/022197 and commonly owned WO/O4014852. Further, the compounds of the present disclosure can be effective against the HCV 1b genotype. It should also be understood that the compounds of the present disclosure can inhibit multiple genotypes of HCV. […] In one embodiment, compounds of the present disclosure are inhibitory versus 1a, 1b, 2a, 2b, 3a, 4a, and 5a genotypes.

Molecule COC(=O)N[C@H](C(=O)N1[C@H](c2ncc(-c3ccc(-c4ccc(-c5cnc([C@@H]6CCN(C)N6C(=O)[C@@H](NC(=O)OC)C(C)C)[nH]5)cc4)cc3)[nH]2)CCN1C)C(C)C [Example 1, methyl ((1S)-1-(((5S)-5-(5-(4′-(2-((3S)-2-((2S)-2-((methoxycarbonyl)amino)-3-methylbutanoyl)-1-methyl-3-pyrazolidinyl)-1H-imidazol-5-yl)-4-biphenylyl)-1H-imidazol-2-yl)-2-methyl-1-pyrazolidinyl)carbonyl)-2-methylpropyl)carbamate] has a pEC50 (read-out: 1b EC50) of 11.52.

With COC(=O)N[C@H](C(=O)N1[C@H](c2ncc(-c3ccc(C#Cc4ccc(-c5cnc([C@@H]6CCN(C)N6C(=O)[C@@H](NC(=O)OC)C(C)C)[nH]5)cc4)cc3)[nH]2)CCN1C)C(C)C [Example 8, methyl ((1S)-1-(((5S)-5-(5-(4-((4-(2-((3S)-2-((2S)-2-((methoxycarbonyl)amino)-3-methylbutanoyl)-1-methyl-3-pyrazolidinyl)-1H-imidazol-5-yl)phenyl)ethynyl)phenyl)-1H-imidazol-2-yl)-2-methyl-1-pyrazolidinyl)carbonyl)-2-methylpropyl)carbamate] the pEC50 (read-out: 1b EC50) was 9.70 and the pEC50 (read-out: 1b EC50 in Range) was 9.00 to 10.00.

O=C(OCc1ccccc1)N1CCCN1c1nc(-c2ccc(-c3ccc(-c4c[nH]c(N5CCCN5C(=O)OCc5ccccc5)n4)cc3)cc2)c[nH]1 [Example 10, dibenzyl 2,2′-(4,4′-biphenyldiylbis(1H-imidazole-4,2-diyl))di(1-pyrazolidinecarboxylate)] gave a pEC50 (read-out: 1b EC50 in Range) of 7.00 to 9.00.

In the case of COC(=O)N[C@H](C(=O)N1CCCN1c1nc(-c2ccc(-c3ccc(-c4c[nH]c(N5CCCN5C(=O)[C@@H](NC(=O)OC)C(C)C)n4)cc3)cc2)c[nH]1)C(C)C [Example 11, methyl ((1S)-1-((2-(4-(4′-(2-(2-((2S)-2-((methoxycarbonyl)amino)-3-methylbutanoyl)-1-pyrazolidinyl)-1H-imidazol-4-yl)-4-biphenylyl)-1H-imidazol-2-yl)-1-pyrazolidinyl)carbonyl)-2-methylpropyl)carbamate], the pEC50 (read-out: 1b EC50) was > 7.86 and the pEC50 (read-out: 1b EC50 in Range) was 7.00 to 9.00.

COC(=O)N[C@@H](C(=O)N1CCCN1c1nc(-c2ccc(-c3ccc(-c4c[nH]c(N5CCCN5C(=O)[C@H](NC(=O)OC)c5ccccc5)n4)cc3)cc2)c[nH]1)c1ccccc1 [Example 12, dimethyl (4,4′-biphenyldiylbis(1H-imidazole-4,2-diyl-2,1-pyrazolidinediyl((1R)-2-oxo-1-phenyl-2,1-ethanediyl)))biscarbamate] showed a pEC50 (read-out: 1b EC50 in Range) of 9.00 to 10.00.
